Here are results for three compounds from article PMC11770821, “Pharmacokinetics and pharmacodynamics of an innovative psychedelic N,N-dimethyltryptamine/harmine formulation in healthy participants: a randomized controlled trial” (International Journal of Neuropsychopharmacology, 2025).

One series can be described thus: clinical. Conditions: male, human, plasma, other: intranasal (DMT), buccal (harmine).
Series [1] in a line: Plasma pharmacokinetics of DMT, harmine and their metabolites (non-compartmental analysis).
Method: (§1) The study was conducted as a within-subject, double-blind, randomized placebo-controlled trial. Randomization was performed by an independent individual using a computer-generated random number sequence. All participants underwent 3 randomized drug treatments on separate study days, with an intervening washout period of at least 2 weeks: (1) DMT/HAR: harmine hydrochloride (HCl; 100 mg; buccal orodispersible tablet; ODT) plus DMT (as hemifumarate; 100 mg; intranasal: 10 mg every 15 minutes over 150 minutes), (2) HAR/PLA: harmine (100 mg, buccal ODT) plus placebo nasal spray (NaCl; at same dosing intervals), and (3) PLA/PLA: placebo buccal ODT plus placebo nasal spray. In all conditions, buccal tablets were premedicated for 30 minutes. Food or water intake was not allowed 2 hours before drug administration.
(§2) Thirty minutes following buccal premedication with harmine HCl (100 mg) or placebo, the intranasal repeated-intermittent administration of DMT or placebo was initiated. Volunteers received up to 100 mg DMT in 10 mg dosing steps each 15 minutes (2 × 2 puffs per nostril) over a period of 150 minutes (except for a 30-minute break between 60 and 90 minutes due to a behavioral task). […] Volunteers could adjust each dose (0, 5, 10 mg) based on tolerance, with encouragement to follow the regimen if no adverse effects (AEs) occurred. Thus, volunteers were given the chance to control the psychedelic strength of the experience to enhance safety and tolerability.
(§3) Blood samples were collected from the left or right antecubital vein at −30 (baseline), 0, 30, 60, 90, 120, 150, 180, 195, 210, 240, 270, and 300 minutes after first DMT/placebo administration for analysis of blood plasma levels of harmine, DMT, the 3 major DMT metabolites 3-IAA, DMT-N-oxide, and NMT and the major harmine metabolite harmol. While DMT administration was ongoing, blood drawing was always performed right before DMT administration (time point -1 minute). The venous catheter was connected to a 100 mm Heidelberger plastic tube extension to collect blood samples without disturbing the volunteers during their psychedelic experience. The intravenous line was kept patent with a slow drip (10 mL/h) of heparinized saline (1000 IU heparin in 0.9 g NaCl/dL; HEPARIN Bichsel; Bichsel AG). Blood samples were immediately centrifuged for 10 minutes at 2000 RCF. Then, plasma was transferred to Eppendorf tubes, shock-frosted in liquid nitrogen (~ −196 °C) and stored at −80 °C until assay.
(§4) The data were analyzed and visualized with R Studio version 2021.09.2 + 382.[36] PK-PD parameters were computed using the R-package PKNCA.[37] For Cmax, tmax, AUCs (area under the curves), and half-life calculations, non-compartmental analyses were performed.[38] […] Post hoc pairwise comparisons were calculated using paired Wilcoxon signed-rank tests. P-values were adjusted using the Benjamini-Hochberg multiple testing correction method. Pearson or Spearman correlations were performed (as appropriate according to Shapiro-Wilk tests) to analyze associations between DMT plasma levels and subjective effects.
(§5) For the sample preparation 200 µl of plasma were spiked with 50 µl internal standard (IS) mixture (40 ng/ml DMT-d6 and harmine-d3) and 50 µl methanol (MeOH). Proteins were precipitated by adding 400 µl of acetonitrile (ACN). The samples were shaken for 10 minutes and centrifuged for 5 min at 10‘000 rpm. 350 µl of the supernatant was transferred into an auto-sampler vial, evaporated to dryness under a gentle stream of nitrogen at room temperature and reconstituted in 100 µl eluent-mixture (98:2, v/v).
Another series deals with healthy male volunteers. Briefly: Acute subjective drug effects, visual analog scales (VAS 0–100). Format: in vivo, human. The procedure:
The detailed dosing scheme is depicted in Figure 1.
The intensity of acute subjective effects was monitored with visual analog scales (VASs, range 0–100) on a touchscreen tablet throughout the study day at baseline (−90), 0, 30, 60, 90, 120, 180, 240, and 300 after the first DMT/placebo administration. At 360 minutes after the first DMT/placebo administration, a phenomenological interview was conducted with participants to further explore acute subjective drug effects. For PK-PD analyses, we included VAS for intensity, liking, disliking, and arousal in the present paper. Further analyses on a set of neurophysiological, psychometric, and phenomenological assessments will be presented in forthcoming manuscripts.

Method for clinical: as §1, §2, §3, §4, §5

A word on the AUC: it is concentration integrated over time. What is called Cmax is the peak of the concentration-time curve. In general, Tmax refers to the time from dosing to the highest level. In the case of `O=C(O)Cc1c[nH]c2ccccc12` [3-IAA, indole-3-acetic acid], in “clinical”, the AUC was determined as 7580 ng·h/mL, the highest level (Cmax) was 2910 ng/mL and the Tmax is 4.1 h. In series [1] (harmine-only (HAR) condition), the “plasma levels after harmine administration” value is “decreased”.
In general, half-life refers to the time in which the quantity being followed falls by half. Regarding `CN(C)CCc1c[nH]c2ccccc12` [DMT, N,N-dimethyltryptamine], the “correlation (r) between subjective intensity ratings and DMT plasma levels” value in the series on healthy male volunteers (DMT + harmine condition, 95% CI 0.51-0.66) amounted to 0.59. For the same compound, the “duration of psychedelic effects / overall drug action” value with healthy male volunteers (DMT + harmine, after first DMT administration) was ≤ 240 min. Also, in the series with healthy male volunteers (DMT co-administered with harmine), the “duration of acute drug (psychedelic) effects” value fell in the range of 2 to 3 h. Also, the “time blood plasma levels remained constant after the last intranasal DMT dose” value in series [1] (DMT + harmine condition) was determined as 30 min. In addition, the half-life in series [1] (male, human, plasma, other: intranasal) worked out at 0.6 h.
With `C[N+](C)([O-])CCc1c[nH]c2ccccc12` [DMT-N-oxide], the t1/2 in series [1] (DMT + harmine condition, plasma elimination half-life, mean (SD)) was 1.2 (0.4) h. Further, in series [1] (DMT + harmine condition, plasma, time zero to infinity, mean (SD)), the AUCinf is given as 69.2 (22.1) ng × h/mL.
